Test results published in patent US9175013B2, “Fused aminodihydrothiazine derivatives” (Eisai R&D Management Co., Ltd., priority 2011, dated 2015).
Where two headings read alike, the source gives them in different places.

Experiments:
[1] = Human liver microsomal stability assay; assay type: in vitro ADME; conditions: 0.1 μmol/L compound, 30 min, 37° C., NADPH generating system
Experimental: Human Liver Microsomal Stability Assay The compound was dissolved in DMSO to prepare 1 mmol/L DMSO solution. The DMSO solution was diluted with distilled water to prepare 1 μmol/L compound dosing solution (DMSO conc.: 0.1%). 105 μL of reaction buffer (1 mol/L phosphate buffer (pH 7.4)/1 mmol/L EDTA (pH 7.4)/distilled water=1/1/5, v/v/v), 15 μL of 1 μmol/L compound dosing solution, and 15 μL of rat or human liver microsomes (5 mg/mL) were mixed, and preincubated for 5 min at 37° C. Metabolic reaction was initiated by adding 15 μL of NADPH generating system (3.3 mmol/L β-NADPH+, 80 mmol/L glucose 6-phosphate, 1 unit/mL glucose 6-phosphate dehydrogenase, 60 mmol/L MgCl2). For the control sample, NADPH generating system was replaced with 60 mmol/L MgCl2. The 150 μL of reaction mixture (final compound conc.: 0.1 μmol/L, final DMSO conc.: 0.01%) was incubated for 30 min at 37° C., and the reaction was terminated by adding 150 μL of methanol/acetonitrile solution containing an appropriate internal standard compound. The sample was vortexed and centrifuged, and obtained supernatant was subject to LC/MS analysis.

Aβ40 = experiment: Amyloid detection: Aβ40 in rat brain and CSF after oral dosing (Wako ELISA); assay type: in vivo, Sprague Dawley rat; conditions: 10 mg/kg p.o.
Experimental: Male Sprague Dawley rats were acquired from Charles River UK Ltd. (Margate, UK) and housed according to UK Home Office guidelines. Drugs were made up to the appropriate concentrations in 0.5% methyl cellulose. Animals were dosed orally (2 mL/kg) by gavage at the doses outlined in Tables 1 to 4 below. At the time points post-dosing, specified in the Tables 1 to 4 below the animals were administered an i.p. injection of sodium pentobarbitone (approximately 330 mg/kg for terminal anaesthesia). Using a guillotine, the animals were decapitated and trunk blood collected into 15 ml Falcon tubes containing 100 IU heparin. Blood was vortexed followed by centrifugation at 6000 rpm, 4° C. for 5 minutes. Plasma was collected for DMPK and ELISA assays and stored at −80° C. until use. Brains were dissected out and divided along the midline, weighed and stored at −80° C. until further use. Amyloid Detection 100 ml of chilled 0.2% diethyl amine (DEA) in 50 mM NaCl (pH 10) was freshly prepared and 1 ml/25 mg brain tissue was added to each hemisphere (i.e. 40× brain volume). The brains were immediately homogenized using a Polytron PT 1200 for 1.5 minutes and samples left to incubate on ice for one hour after homogenisation. 3 ml of the homogenate was transferred to a polyallomer tube (Beckman #362333) and spun at 133000×g (55,000 rpm) for 45 min at 4° C. The supernatant was then neutralised to pH 8-8.3 by adding 1/10 volume 0.5M Tris/HCl, pH 6.8. The samples can be used fresh or snap frozen on dry-ice and stored at −80° C. until required for analysis The Wako Aβ40 ELISA kit (Code No. 294-62501) uses the monoclonal antibody BNT77, raised against epitope Aβ(11-28) and the monoclonal antibody BA27, which specifically detects the C-terminal portion of Aβ40. This kit is used for the quantitative determination of human or rat Aβ(1-40) and also N-terminally truncated Aβ40 species (Aβ(x-40)) in biological matrices such as tissue culture medium, tissue homogenate, CSF and plasma. For analysis, plasma and brain samples are diluted 1:1 with the standard diluent contained in the kit and CSF samples are diluted 1:8 with the standard diluent contained in the kit. The assay is carried out according to manufacturers instructions and samples are analysed in duplicate. Data is analysed using Microsoft Excel 2003 and statistical analysis is carried out using Genstat 9th Edition.

[2] = Plasma protein binding (PPB), rapid equilibrium dialysis; assay type: in vitro ADME; conditions: male, Sprague Dawley, rat, 37° C., 6 h dialysis
Experimental: Method for Determination of Plasma Protein Binding (PPB) and Brain Tissue Binding (BTB) Compound Preparation • Compounds were dissolved in DMSO to give a 1 mg free base/mL solution, before further dilution to 100 μg/mL in acetonitrile (100 μL of 1 mg/mL into 900 μL acetonitrile). Matrix Preparation • On the morning of dialysis, control male Sprague Dawley rat plasma and brain, previously stored at −80° C. were thawed at room temperature. Plasma was checked for pH and if necessary adjusted to 7.4 with 1M HCl. Plasma was then centrifuged (2000 g for 10 min) and the brains diluted with 2 mL of Phosphate Buffered Saline (pH 7.4) per gram of tissue and homogenised using a mechanical homogeniser. An aliquot (10 μL) of the 100 μg/mL acetonitrile compound solution was then added to 1 mL of plasma and brain homogenate and vortex mixed to give a final compound concentration of 1 μg/mL in matrix. RED Plate Preparation • The Rapid Equilibrium Dialysis (RED) plate (Thermo Scientific) was prepared in accordance with the manufacturers guidelines i.e. the base plate was soaked in 20% (v/v) ethanol for 10 min and then rinsed twice with deionised water before being allowed to dry. The base plate was then filled with the appropriate number of disposable inserts (n=3 per compound) (Thermo Scientific) and matrix containing 1 μg/mL compound added into the matrix chamber of the inserts (200 μL) and an aliquot (350 μL) of PBS added to the buffer chamber. The plate was then covered with an adhesive and incubated in air at 37° C. for 6 h with 130 rpm agitation. Sampling • Following the 6 h incubation, the seal was removed and an aliquot (50 μL) taken from the PBS chambers and dispensed into Micronics tubes. Also, an aliquot (50 μL) was removed from the matrix chambers and placed into separate Micronics tubes. Plasma and brain was then matrix matched with 50 μL of drug-free PBS and the PBS samples with 50 μL of the corresponding drug-free matrix, to give equal final compositions and volumes […]. Sample Analysis • Samples were vortex mixed and an aliquot (300 μL) of acetonitrile containing 0.1% formic acid and 100 ng/mL of an appropriate internal standard added. Samples were then mixed and centrifuged (2000 g for 15 min) and an aliquot of the supernatant (100 μL) removed into a 96-deep well plate and diluted with an equal volume of water ready for analysis by LC-MS/MS. • The following data was obtained for the following compounds in the above assay (Table 5).

[3] = pH 7.4, 1 μg/mL in rat plasma, mean of n = 3, read-out: Rat PPB (%) (converted)
[4] = pH 7.4, fraction unbound, 1 μg/mL in rat plasma, mean of n = 3, read-out: Rat Plasma fu

HLM stability: percentage of parent remaining upon 30 minute incubation with human liver microsomes [1]	fraction unbound at 6 h, 1 μg/mL [2, 3]	fraction unbound at 6 h, 1 μg/mL [2, 4]	Structure (SMILES)	reduction of Aβ40 in the CSF (Aβ40; 4 hours)	reduction of Aβ40 in the brain (Aβ40; 4 hours)	reduction of Aβ40 in the CSF (Aβ40; 6 hours)	reduction of Aβ40 in the brain (Aβ40; 6 hours)
73.3%	0.143	0.143	COc1cnc(C(=O)Nc2ccc(F)c([C@]34CO[C@H](C(F)F)[C@H]3CSC(N)=N4)c2)cn1 [Example 3, N-(3-((4aS,5S,7aS)-2-amino-5-(difluoromethyl)-4a,5,7,7a-tetrahydro-4H-furo[3,4-d][1,3]thiazin-7a-yl)-4-fluorophenyl)-5-methoxypyrazine-2-carboxamide]	75%	58%	71%	61%
78.6%	0.13	0.13	COc1cnc(C(=O)Nc2cc(F)c(F)c([C@]34CO[C@H](CF)[C@H]3CSC(N)=N4)c2)cn1 [Example 4, N-(3-((4aS,5S,7aS)-2-amino-5-(fluoromethyl)-4a,5,7,7a-tetrahydro-4H-furo[3,4-d][1,3]thiazin-7a-yl)-4,5-difluorophenyl)-5-methoxypyrazine-2-carboxamide]	67%	51%	63%	42%

Structure (SMILES)	HLM stability: percentage of parent remaining upon 30 minute incubation with human liver microsomes [1]	fraction unbound at 6 h, 1 μg/mL [2, 3]	fraction unbound at 6 h, 1 μg/mL [2, 4]	reduction of Aβ40 in the CSF (Aβ40; 4 hours)	reduction of Aβ40 in the brain (Aβ40; 4 hours)	reduction of Aβ40 in the CSF (Aβ40; 6 hours)	reduction of Aβ40 in the brain (Aβ40; 6 hours)
COc1cnc(C(=O)Nc2ccc(F)c([C@]34CO[C@H](CF)[C@H]3CSC(N)=N4)c2)cn1 [Example 2, N-(3-((4aS,5S,7aS)-2-amino-5-(fluoromethyl)-4a,5,7,7a-tetrahydro-4H-furo[3,4-d][1,3]thiazin-7a-yl)-4-fluorophenyl)-5-methoxypyrazine-2-carboxamide]	82.0%	0.251	0.252	85%	63%	69%	65%
